Measured values taken from ChEMBL document CHEMBL1125158, “A model for compounds active against human rhinovirus-14 based on X-ray crystallography data” (1990).
Converted amounts (≈) assume the structure as drawn. The source made the active and inactive calls. The rule behind the calls is not given here.

Test system: rhinovirus B14
Test: In vitro minimum inhibitory concentration for the inhibition of human rhinovirus-14 replication.
Format: functional
Details: not given

MIC | Compound
inactive | Cc1cc(CCCCOc2ccc(C3=NCCO3)cc2)on1

Same assay, conditions: Rhinovirus B

MIC [µM] | Compound
1.06 (≈ 0.399 µg/mL) | Cc1cc(CCCCCCCOc2ccc(C3=NCCO3)cc2Cl)on1
0.023 (≈ 0.00852 µg/mL) | CC[C@H]1COC(c2ccc(OCCCCCCCc3cc(C)no3)cc2)=N1
0.16 (≈ 0.0596 µg/mL) | Cc1cc(CCCCCCCOc2ccc(C3=NC(CO)CO3)cc2)on1 (centres undefined)
9.2 (≈ 3.08 µg/mL) | Cc1cc(CCCCOc2ccc(C3=NCCO3)cc2Cl)on1
3.86 (≈ 1.4 µg/mL) | Cc1cc(CCCCCCOc2ccc(C3=NCCO3)cc2Cl)on1
0.05 (≈ 0.0178 µg/mL) | Cc1cc(CCCCCCCOc2ccc(C3=NC(C)CO3)cc2)on1 (centres undefined)
2.4 (≈ 0.938 µg/mL) | Cc1cc(CCCCCCCOc2ccc(C3=NC(C)CO3)cc2Cl)on1 (centres undefined)
0.56 (≈ 0.2 µg/mL) | CCCCc1cc(CCCCCOc2ccc(C3=NCCO3)cc2)on1
0.06 (≈ 0.0301 µg/mL) | OCCOCOCc1cc(CCCCCCCOc2c(Cl)cc(C3=NCCO3)cc2Cl)on1
2.9 (≈ 0.952 µg/mL) | Cc1cc(CCCCCCOc2ccc(C3=NCCO3)cc2)on1
0.41 (≈ 0.14 µg/mL) | Cc1cc(CCCCCCCOc2ccc(C3=NCCO3)cc2)on1 [DISOXARIL]
0.7 (≈ 0.23 µg/mL) | Cc1cc(CCCCCOc2ccc(C3=NC(C)CO3)cc2)on1 (centres undefined)
3.92 (≈ 1.4 µg/mL) | Cc1cc(CCCCCCCCOc2ccc(C3=NCCO3)cc2)on1
0.51 (≈ 0.16 µg/mL) | Cc1cc(CCCCCOc2ccc(C3=NCCO3)cc2)on1
0.14 (≈ 0.0499 µg/mL) | Cc1cc(CCCCCOc2ccc(-c3nc(C)c(C)s3)cc2)on1
0.16 (≈ 0.0548 µg/mL) | CCCc1cc(CCCCCOc2ccc(C3=NCCO3)cc2)on1
0.16 (≈ 0.0593 µg/mL) | Cc1cc(CCCCCCCOc2ccc(C3=NC(C)(C)CO3)cc2)on1
14.3 (≈ 5.6 µg/mL) | Cc1cc(CCCCCCCCOc2ccc(C3=NCCO3)cc2Cl)on1
2.41 (≈ 0.841 µg/mL) | Cc1cc(CCCCCOc2ccc(C3=NCCO3)cc2Cl)on1
0.43 (≈ 0.141 µg/mL) | CCc1cc(CCCCCOc2ccc(C3=NCCO3)cc2)on1

Test system: rhinovirus B14
Test: In vitro inhibitory activity against human rhinovirus-14 was determined
Format: functional
Details: Rhinovirus B

MIC [µM] | Compound
1.27 (≈ 0.399 µg/mL) | Cc1cc(CCCCCOc2ccc(C3=NCCO3)cc2)on1

Test system: rhinovirus B14
Test: In vitro minimum inhibitory concentration for the inhibition of human rhinovirus-14 (HRV-14) replication by binding to viral capsid; NA= inactive at the 10 umol.
Format: functional, organism-based
Details: not given

Compound | MIC
Cc1cc(CCCCCOc2c(Cl)cc(-c3ccoc3)cc2Cl)on1 | inactive
Cc1cc(CCCCCOc2ccc(C3=NCCO3)cc2N(C)C)on1 | inactive
Cc1cc(CCCCCOc2c(Cl)cc(C3=NCCO3)cc2C(C)(C)C)on1 | inactive
Cc1cc(CCCCCOc2c(C)cc(-c3ccco3)cc2C)on1 | inactive
Cc1cc(CCCCCOc2c(Cl)cc(-c3cnco3)cc2Cl)on1 | inactive
CCc1cc(C2=NCCO2)cc(C)c1OCCCCCc1cc(C)no1 | inactive
Cc1cc(CCCCCOc2c(C)cc(-c3ccoc3)cc2C)on1 | inactive
